Patent publication US5885995A, “Inhibitors of farnesyl-protein transferase” (Merck & Co., Inc., priority 1997, dated 1999)
Structures can show the parent of a compound that is named as a salt.

Target: T1, human FPTase (Homo sapiens, UniProt P49354+P49356)
T1 construct: made in house
Assay: In vitro inhibition of human farnesyl-protein transferase (FPTase)
Format: biochemical
Conditions: [3H]-FPP, 100 nM Ras-CVIM, 30 min, read-out: IC50 (inhibitory activity against human FPTase)

N#Cc1ccc(Cn2cncc2CN2CCN(c3cccc(Cl)c3)CC2=O)cc1 [Example 1, 4-(3-Chlorophenyl)-1-[1-(4-cyanobenzyl)-5-imidazolylmethyl]-2-piperazinone hydrochloride]
IC50: ≤ 10 µM
